Experimental data from publication PMC4766415 (Nature Communications, 2016).

Target: WT-TTR (Homo sapiens, UniProt P02766)
Experiment: TTR stabilization in urea, Trp fluorescence
Format: biochemical
Design: made in house; host or cells: Escherichia coli BL21(DE3), pET expression system
Details: 72 h; for WT-tetramer unfolded: WT-TTR 1.8 μM, 6.5 M urea, RT
Procedure: In urea, TTR tetramer dissociation precedes monomer unfolding, a process easily tracked by monitoring changes in intrinsic Trp fluorescence.
At high denaturant concentrations, the rate of TTR tetramer dissociation is linked irreversibly to monomer unfolding. […] Intrinsic fluorescence was recorded after 72 h.
Urea was added to attain a range of final concentrations (0–9 M) and the samples were incubated for 72 h at RT. Fluorescence intensity measurements were performed on a Jasco FP-8200 Spectrofluorometer. Trp fluorescence was obtained by exciting the samples at 280 nm and emission was collected from 300 to 400 nm. The fluorescence intensity ratio 355/335 nm was plotted against urea concentration as a sensor of folded protein, which for TTR in urea is equivalent to tetramer integrity. […] The fraction of unfolded TTR was measured and calculated as above. The TTR fluorescence after incubation at RT for 72 h in 9 M urea was considered to correspond to that of the unfolded state.

SMILES: Cc1ccc(C(=O)c2cc(O)c(O)c([N+](=O)[O-])c2)cc1 [tolcapone]
- WT-tetramer unfolded (2 molar equivalents): 33.8%
- WT-tetramer unfolded (4 molar equivalents): 8%
- TTR remaining in the native state (10 molar equivalents, 8 M urea): more than 80%
